# Test results: PubChem BioAssay (NCI)
#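 The compound was tested at five concentrations on cells cultured in 96-well plates, with a 48-hour exposure period. TGI marks complete inhibition of growth.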 Where a SMILES comes first, the peptide text is derived from it. The star is where a group is joined. Boc = CC(C)(C)OC(=O)*; OBn = c1ccc(CO*)cc1
# System: HS 578T breast
# Assay: inhibition of tumour cell growth, NCI panel, 48 h
row,SMILES,TGI [µM]
1,COc1cc2c[n+](C)c3c4cc5c(cc4ccc3c2cc1OC)OCO5,> 100
2,CCOC(=O)CCC(NC(=O)c1ccc(CNc2nc3ccccc3nc2C(=O)OCC)cc1)C(=O)OCC (stereo unspecified),> 100
3,COC(=O)Nc1nc2ccc(S(=O)(=O)NC(CC(C)C)C(=O)OC)cc2[nH]1 (stereo unspecified),3.47
4,Cc1cc([C@H](C#N)c2nc3ccccc3[nH]2)nc(Cl)n1,> 100
5,CN(C)C=Nc1cccc2nsnc12,> 100
6,CC(=O)O[C@@H]1CC[C@@]2(C)C(CC[C@H]3[C@@H]4CC[C@H]([C@H](C)CCc5nc6ccc(C)cc6[nH]5)[C@@]4(C)CC[C@@H]32)C1 (stereo partly specified),> 100
7,COc1cccc(OC/C(N=Cc2cccnc2)=N/NC(=O)c2ccncc2)c1,> 100
8,Cc1csc2nc3c(cnn3C)c(=S)n12,> 100
9,C/C1=C/C(C)CC(C)OC(=O)C(C)NC(=O)C(Cc2ccc(O)c(I)c2)N(C)C(=O)CNC(=O)C(C)C1 (stereo unspecified),0.723
10,Cc1ccc(-n2cnc3c(N)nc(N)nc32)cc1,> 100
11,O=c1c(C=Nc2ccccc2Cl)c(O)n(-c2ccccc2)c(=O)n1-c1ccccc1,> 100
12,CCOC(=O)NNC(=O)C1CSC(c2ccccc2)N1C(C)=O (stereo unspecified),> 100
13,O=[n+]1c2ccccc2n([O-])c2ccccc21,> 100
14,CCCCCCCCCCCCCCCCCCNc1ccn(C2OC(COP(=O)(O)OC3CC(n4cc(F)c(=O)[nH]c4=O)OC3COP(=O)(O)OCC3OC(n4ccc(N)nc4=O)C(O)C3O)C(O)C2O)c(=O)n1 (stereo unspecified),> 100

# System: LOX IMVI melanoma
# Assay: inhibition of tumour cell growth, NCI panel, 48 h
row,SMILES,TGI [µM]
1,Cc1oc2c(c1C)S(=O)(=O)C(C#N)C(c1ccccc1)N2 (stereo unspecified),> 100
2,CC(=O)Oc1cc2c(n(C)c1=O)-c1ccccc1C2,> 100
3,Nc1nc(N)c2cc(Sc3ccc4nc(N)nc(N)c4c3)ccc2n1,> 100
4,N#CC(C#N)N=Cc1ccncc1,> 100
5,COc1ccc2c(c1)/C(=C\c1c(C)nc3n1CCS3)C(=O)N2,> 100
6,CN(C)C=C1C(=O)c2c(Br)sc(Br)c2C1=O,38.9
7,O=c1[nH]n(Cc2ccccc2Cl)c2ccc([N+](=O)[O-])cc12,> 100
8,COc1cc2c[n+](C)c3c4cc5c(cc4ccc3c2cc1OC)OCO5,24.8
9,CCOC(=O)CCC(NC(=O)c1ccc(CNc2nc3ccccc3nc2C(=O)OCC)cc1)C(=O)OCC (stereo unspecified),> 100
10,COC(=O)Nc1nc2ccc(S(=O)(=O)NC(CC(C)C)C(=O)OC)cc2[nH]1 (stereo unspecified),> 100
11,Cc1cc([C@H](C#N)c2nc3ccccc3[nH]2)nc(Cl)n1,> 100
12,OC(CCN1CCCCC1)(c1ccccc1)c1ccccc1,> 100
13,COC1CC(C)C(OC)C2=CC(=O)C=C(NC(=O)/C(C)=C/C=C\C(C)C(OC(N)=O)/C(C)=C\C(C)C1OC)C2=O (stereo unspecified),3.66
14,O=C1c2ccccc2C(O)(C(=O)O)C1(O)CC=C(Cl)Cl (stereo unspecified),> 125
15,CN(C)C=Nc1cccc2nsnc12,> 100
16,CC(=O)O[C@@H]1CC[C@@]2(C)C(CC[C@H]3[C@@H]4CC[C@H]([C@H](C)CCc5nc6ccc(C)cc6[nH]5)[C@@]4(C)CC[C@@H]32)C1 (stereo partly specified),> 100
17,COc1cccc(OC/C(N=Cc2cccnc2)=N/NC(=O)c2ccncc2)c1,> 100
18,Cc1csc2nc3c(cnn3C)c(=S)n12,> 100
19,C/C1=C/C(C)CC(C)OC(=O)C(C)NC(=O)C(Cc2ccc(O)c(I)c2)N(C)C(=O)CNC(=O)C(C)C1 (stereo unspecified),< 0.01
20,COC(=O)C(C)NP(=O)(N1CC1)N1CC1 (stereo unspecified),> 100
21,Cc1ccc(-n2cnc3c(N)nc(N)nc32)cc1,> 100
22,Ic1ncnc2c1ncn2C1CCCO1 (stereo unspecified),> 100
23,COc1ccc(Nc2nnc(CCCCCCCCc3nnc(Nc4ccc(OC)cc4)o3)o2)cc1,> 100
24,O=c1c(C=Nc2ccccc2Cl)c(O)n(-c2ccccc2)c(=O)n1-c1ccccc1,> 100
25,CCOC(=O)NNC(=O)C1CSC(c2ccccc2)N1C(C)=O (stereo unspecified),> 100
26,O=[n+]1c2ccccc2n([O-])c2ccccc21,> 100
27,CC(C)(C)O/C=C1/C(=O)OC2C[C@@H](O[Si](C)(C)C(C)(C)C)CC12 (stereo partly specified),> 100
28,CCCCCCCCCCCCCCCCCCNc1ccn(C2OC(COP(=O)(O)OC3CC(n4cc(F)c(=O)[nH]c4=O)OC3COP(=O)(O)OCC3OC(n4ccc(N)nc4=O)C(O)C3O)C(O)C2O)c(=O)n1 (stereo unspecified),20
29,CC(C)C(NC(=O)C(Cc1ccccc1)NC(=O)OC(C)(C)C)C(=O)NCC(=O)OCc1ccccc1 (stereo not drawn) (Boc-Phe-Val-Gly-OBn; configuration not given here),30.2

# System: M14 melanoma
# Assay: inhibition of tumour cell growth, NCI panel, 48 h
row,SMILES,TGI [µM]
1,Cc1oc2c(c1C)S(=O)(=O)C(C#N)C(c1ccccc1)N2 (stereo unspecified),> 100
2,CC(=O)Oc1cc2c(n(C)c1=O)-c1ccccc1C2,> 100
3,Nc1nc(N)c2cc(Sc3ccc4nc(N)nc(N)c4c3)ccc2n1,> 100
4,N#CC(C#N)N=Cc1ccncc1,> 100
5,COc1ccc2c(c1)/C(=C\c1c(C)nc3n1CCS3)C(=O)N2,93.7
6,CN(C)C=C1C(=O)c2c(Br)sc(Br)c2C1=O,33.8
7,O=c1[nH]n(Cc2ccccc2Cl)c2ccc([N+](=O)[O-])cc12,> 100
8,COc1cc2c[n+](C)c3c4cc5c(cc4ccc3c2cc1OC)OCO5,> 88.1
9,CCOC(=O)CCC(NC(=O)c1ccc(CNc2nc3ccccc3nc2C(=O)OCC)cc1)C(=O)OCC (stereo unspecified),> 100
10,OC(CCN1CCCCC1)(c1ccccc1)c1ccccc1,> 100
11,COC1CC(C)C(OC)C2=CC(=O)C=C(NC(=O)/C(C)=C/C=C\C(C)C(OC(N)=O)/C(C)=C\C(C)C1OC)C2=O (stereo unspecified),12.2
12,CN(C)C=Nc1cccc2nsnc12,> 100
13,CC(=O)O[C@@H]1CC[C@@]2(C)C(CC[C@H]3[C@@H]4CC[C@H]([C@H](C)CCc5nc6ccc(C)cc6[nH]5)[C@@]4(C)CC[C@@H]32)C1 (stereo partly specified),> 100
